Measured values reported in publication PMC10375898 (2023).

Assays:
[1] = test system: 5'-(GACAGCUGCUGUC)2-3' duplex (single 5'CUG/3'GUC) (RNA, mismatch bulge abasic) GACAGCUGCUGUC; experiment: To-Pro-1 dye displacement (fluorescence); settings: Na+ 200 mM NaCl, 8 mM NaH2PO4; To-Pro-1 (100 nM) displaced; Kd from competitive fit (Ki)
[2] = test system: r(CUG)10 (RNA, repeat) CUGCUGCUGCUGCUGCUGCUGCUGCUGCUG; experiment: in vitro Chem-CLIP (photo-cross-linking pull-down); settings: covalent; 26 ± 7% pulled down at 100 μM
[3] = test system: r(CUG)8 with GAAA hairpin loop (RNA, repeat) CCGCUGCUGCUGCUGCGAAAGCUGCUGCUGCUGCGG; experiment: in vitro Chem-CLIP (photo-cross-linking pull-down); settings: covalent; 100 μM
[4] = test system: r(CUG)10 (RNA, repeat) CUGCUGCUGCUGCUGCUGCUGCUGCUGCUG; experiment: competitive Chem-CLIP; settings: competes with 50 μM of 1; 0 to 500 μM
[5] = test system: 5'-(GACAGCUGCUGUC)2-3' duplex (single 5'CUG/3'GUC) (RNA, mismatch bulge abasic) GACAGCUGCUGUC; experiment: NMR (WaterLOGSY, 1D 1H imino and aromatic); settings: 10 mM Na2HPO4/NaH2PO4, pH 6.0, 0.05 mM EDTA
[6] = test system: 5'-(GACAGCUGCUGUC)2-3' duplex (single 5'CUG/3'GUC) (RNA, mismatch bulge abasic) GACAGCUGCUGUC; experiment: fluorescence titration; settings: Na+ 200 mM NaCl; 8 mM NaH2PO4, pH 7.0, 1 mM EDTA, 40 µg/mL BSA, room temperature; 100 nM dye

Row | Kd [1] [nM] | binding [2] | binding [3] | binding [4] | binding [5] | Kd [6] [nM] | Compound
1 | 1200 ± 200 | yes | yes |  |  |  | C#CCCC1(CCC(=O)NC2=Nc3cccc4cccc(c34)N2)N=N1
2 | 1400 ± 300 |  |  | yes | yes |  | CCC(=O)NC1=Nc2cccc3cccc(c23)N1
3 |  |  |  |  |  | 31 ± 2 | C[n+]1c(C=C2C=CN(CCC[N+](C)(C)C)c3ccccc32)sc2ccccc21
